In patent publication US20230159445A1, “STAT INHIBITORY COMPOUNDS AND COMPOSITIONS” (JANPIX LIMITED, priority 2020, published 2023) one finds IC50 data, which are given here for 17 compounds.

In one experiment the test system is MV4-11 cells. Kind of experiment: MV4-11 Cell Cytotoxicity Assay (CellTiter-Blue, 72 h). Type of experiment: cell-based, human. The conditions noted are these: Homo sapiens, MV4-11; MV-4-11 cells. The method, then:
In some embodiments, the potency of the STAT5 inhibitors are evaluated by an in vitro assay such as MV4-11 Cell Cytotoxicity Assay. […] 10,000 cells were plated per well in 96-well flat-bottom sterile culture plates with low-evaporation lids. After 24 h, inhibitors and a vehicle control (0.5% DMSO) were added and the cells were incubated for 72 h at 37° C. in 5% CO2. Inhibitors were examined in triplicate at a maximal concentration of 50 μM, followed by 1:2 dilutions in subsequent wells (25, 12.5, 6.25, 3.125, 1.5625, 0.78125, 0.390625, 0.195313 and 0.097656 μM). After 72 h, the wells were treated with CellTiter-Blue® (20 μL/well), and the plates were incubated using standard cell culture conditions for 1 hour. Fluorescence was measured at 560/590 nm.
(In general: Alamar Blue is a resazurin reagent that responds to reducing activity.)
Turning to `CN(C)c1cc(C(=O)O)cc(F)c1N(Cc1cc(C2CC2)cc(C(C)(C)C)c1)C(=O)CN(Cc1ccccc1F)S(=O)(=O)c1c(F)c(F)c(F)c(F)c1F` [Compound 1069, 4-(N-(3-(tert-butyl)-5-cyclopropylbenzyl)-2-(N-(2-fluorobenzyl)-(2,3,4,5,6-pentafluoro-phenyl)sulfonamido)acetamido)-3-(dimethylamino)-5-fluorobenzoic acid], the IC50 (in general, the concentration at which inhibition is half-maximal) is 316 to 1000 nM. On the same count and under the same terms, the figure for `CC(C)(C)c1cc(CN(C(=O)CN(Cc2ccccc2C(F)(F)F)S(=O)(=O)c2c(F)c(F)c(F)c(F)c2F)c2ccc(C(=O)O)cc2C2CC2)cc(C2CC2)c1` [Compound 1112, 4-(N-(3-(tert-butyl)-5-cyclopropylbenzyl)-2-(N-(2-(trifluoromethyl)benzyl)-(2,3,4,5,6-pentafluoro-phenyl)sulfonamido)acetamido)-3-cyclopropylbenzoic acid] is 0.01 to 316 nM. For `CN(C)c1cc(C(=O)O)ccc1N(Cc1cc(C2CC2)cc(C(C)(C)C)c1)C(=O)CN(Cc1c(F)c(F)c(F)c(F)c1F)S(=O)(=O)c1c(F)c(F)c(F)c(F)c1F` [Compound 1106, 4-(N-(3-(tert-butyl)-5-cyclopropylbenzyl)-2-(N-((perfluorophenyl)methyl)-(2,3,4,5,6-pentafluorophenyl)sulfonamido)acetamido)-3-(dimethylamino)benzoic acid], the 50% inhibitory concentration (IC50) fell in the range of 0.01 to 316 nM. On the same count and under the same terms, the figure for `COc1ccc(CN(CC(=O)N(Cc2cc(C3CC3)cc(C(C)(C)C)c2)c2ccc(C(=O)O)c(O)c2)S(=O)(=O)c2c(F)c(F)c(F)c(F)c2F)cc1F` [Compound 1027, 4-(N-(3-(tert-butyl)-5-cyclopropylbenzyl)-2-(N-(3-fluoro-4-methoxybenzyl)-(2,3,4,5,6-pentafluoro-phenyl)sulfonamido)acetamido)-2-hydroxybenzoic acid] is 3160 to 100000 nM; for `CC(C)(C)c1cc(CN(C(=O)CN(Cc2ccc(C#N)cc2)S(=O)(=O)c2c(F)c(F)c(F)c(F)c2F)c2ccc(C(=O)O)cc2OC2CC2)cc(C2CC2)c1` [Compound 1140, 4-(N-(3-(tert-butyl)-5-cyclopropylbenzyl)-2-(N-(4-cyanobenzyl)-(2,3,4,5,6-pentafluorophenyl)sulfon-amido)acetamido)-3-cyclopropoxybenzoic acid] it is 316 to 1000 nM; for `Cc1cc(C(=O)O)cc(C)c1N(Cc1cc(C2CC2)cc(C(C)(C)C)c1)C(=O)CN(Cc1cnccc1C(F)(F)F)S(=O)(=O)c1c(F)c(F)c(F)c(F)c1F` [Compound 1181, 4-(N-(3-(tert-butyl)-5-cyclopropylbenzyl)-2-(N-((4-(trifluoromethyl)pyridin-3-yl)methyl)-(2,3,4,5,6-pentafluoro-phenyl)sulfonamido)acetamido)-3,5-dimethylbenzoic acid] it is 316 to 1000 nM. The same measure, in the same setting: the figure for `CC(C)(C)c1cc(CN(C(=O)CN(Cc2cccc(O)c2)S(=O)(=O)c2c(F)c(F)c(F)c(F)c2F)c2ccc(C(=O)O)c(O)c2)cc(C2CC2)c1` [Compound 1035, 4-(N-(3-(tert-butyl)-5-cyclopropylbenzyl)-2-(N-(3-hydroxybenzyl)-(2,3,4,5,6-pentafluoro-phenyl)sulfonamido)acetamido)-2-hydroxybenzoic acid] is 3160 to 100000 nM; for `CC(C)(C)c1cc(CN(C(=O)CN(Cc2cccc(C#N)c2)S(=O)(=O)c2c(F)c(F)c(F)c(F)c2F)c2ccc(C(=O)O)cc2OC2CC2)cc(C2CC2)c1` [Compound 1139, 4-(N-(3-(tert-butyl)-5-cyclopropylbenzyl)-2-(N-(3-cyanobenzyl)-(2,3,4,5,6-pentafluorophenyl)sulfon-amido)acetamido)-3-cyclopropoxybenzoic acid] it is 316 to 1000 nM. Turning to `CN(C)c1cc(C(=O)O)c(F)cc1N(Cc1cc(C2CC2)cc(C(C)(C)C)c1)C(=O)CN(Cc1c(F)c(F)c(F)c(F)c1F)S(=O)(=O)c1c(F)c(F)c(F)c(F)c1F` [Compound 1107, 4-(N-(3-(tert-butyl)-5-cyclopropylbenzyl)-2-(N-((perfluorophenyl)methyl)-(2,3,4,5,6-pentafluoro-phenyl)sulfonamido)acetamido)-5-(dimethylamino)-2-fluorobenzoic acid], the concentration for half-maximal inhibition (IC50) was 0.01 to 316 nM.

Compound `COC(=O)c1ccc(N(Cc2cc(C3CC3)cc(C(C)(C)C)c2)C(=O)CN(Cc2ccc(Cl)cc2)S(=O)(=O)c2c(F)c(F)c(F)c(F)c2F)cc1O` [Compound 1051, methyl 4-(N-(3-(tert-butyl)-5-cyclopropylbenzyl)-2-(N-(4-chlorobenzyl)-(2,3,4,5,6-pentafluorophenyl)sulfon-amido)acetamido)-2-hydroxybenzoate] had an IC50 of 3160 to 100000 nM. The same measure, in the same setting: the figure for `Cc1cc(C(=O)O)cc(C)c1N(Cc1cc(C2CC2)cc(N2CCCC2)c1)C(=O)CN(Cc1c(F)cc(F)cc1F)S(=O)(=O)c1c(F)c(F)c(F)c(F)c1F` [Compound 1205, 4-(N-(3-cyclopropyl-5-(pyrrolidin-1-yl)benzyl)-2-(N-(2,4,6-trifluorobenzyl)-(2,3,4,5,6-pentafluoro-phenyl)sulfonamido)acetamido)-3,5-dimethylbenzoic acid] is 316 to 1000 nM; for `COc1c(CN(C(=O)CN(Cc2ccc(Cl)cc2)S(=O)(=O)c2c(F)c(F)c(F)c(F)c2F)c2ccc(C(=O)O)c(O)c2)cc(C(C)(C)C)cc1C1CC1` [Compound 1009, 4-(N-(5-(tert-butyl)-3-cyclopropyl-2-methoxybenzyl)-2-(N-(4-chlorobenzyl)-(2,3,4,5,6-pentafluorophenyl)sulfon-amido)acetamido)-2-hydroxybenzoic acid] it is 3160 to 100000 nM.

Staying with this experiment, now noted: Homo sapiens; MV4-11 cells, 72 h, CellTiter-Blue; read-out: IC50- MV-4-11.
`CC(C)(C)c1cc(CN(C(=O)CN(Cc2ccccc2)S(=O)(=O)c2c(F)c(F)c(F)c(F)c2F)c2ccc(C(=O)O)c(O)c2)cc(C(C)(C)C)c1` [Compound 2003, 4-(2-(N-benzyl-(2,3,4,5,6-pentafluorophenyl)sulfon-amido)-N-(3,5-di-tert-butylbenzyl)acetamido)-2-hydroxybenzoic acid]: the IC50 fell in the range of 1000 to 3160 nM. On the same count and under the same terms, the figure for `O=C(O)c1ccc(N(Cc2cc(Cl)cc(Cl)c2)C(=O)CN(Cc2ccc(Cl)cc2)S(=O)(=O)c2c(F)c(F)c(F)c(F)c2F)cc1O` [Compound 2012, 4-(2-(N-(4-chlorobenzyl)-(2,3,4,5,6-pentafluorophenyl)sulfon-amido)-N-(3,5-dichlorobenzyl)acetamido)-2-hydroxybenzoic acid] is 3160 to 100000 nM. Same read-out and setting: the figure for `CC(C)(C)c1cccc(CN(C(=O)CN(C23CC(C2)C3)S(=O)(=O)c2c(F)c(F)c(F)c(F)c2F)c2ccc(C(=O)O)c(O)c2)c1` [Compound 2011, 4-(2-(N-(bicyclo[1.1.1]pentan-1-yl)-(2,3,4,5,6-pentafluorophenyl)sulfon-amido)-N-(3-(tert-butyl)benzyl)acetamido)-2-hydroxybenzoic acid] is 1000 to 3160 nM. For `CC(C)(C)c1cc(C(=O)N(CCN(Cc2ccc(Cl)cc2)S(=O)(=O)c2c(F)c(F)c(F)c(F)c2F)c2ccc(C(=O)O)cc2)cc(C(C)(C)C)c1` [Compound 2005, 4-(3,5-di-tert-butyl-N-(2-(N-(4-chlorobenzyl)-(2,3,4,5,6-pentafluorophenyl)sulfon-amido)ethyl)benzamido)ben-zoic acid], the IC50 lay within 316 to 1000 nM.

Still in this experiment, the particulars now being: MV-4-11 cells.
`COc1cc(C(=O)O)ccc1N(Cc1cc(C2CC2)cc(C2CC2)c1)C(=O)CN(Cc1ncc(F)cc1Cl)S(=O)(=O)c1c(F)c(F)c(F)c(F)c1F` [Compound 1176, 4-(2-(N-((3-chloro-5-fluoropyridin-2-yl)methyl)-(2,3,4,5,6-pentafluorophenyl)sulfon-amido)-N-(3,5-dicyclopropylbenzyl)acetamido)-3-methoxybenzoic acid] yielded an IC50 of 0.01 to 316 nM.
